Where “and” joins values, the source holds several entries; their conditions need not be identical. Equal entries are not always repeated.
Legend:
WT mice = assay: [18F]FDG PET metabolic mapping in WT mice; assay type: in vivo, mouse
Protocol: Mice (D1-hM3Dq, D1-hM4Di or WT littermates, see above) were habituated to experimenter handling and fasted 16 h before the experiment. On the day of the experiment, mice received an IP injection of vehicle (1 ml kg^−1) and were placed back into their home cages. Ten minutes later, mice were injected (IP) with 11 MBq of 2-deoxy-2-[^18F]fluoro-D-glucose (FDG, Cardinal Health) and placed back into their home cages. After 30 min, mice were anesthetized with 1.5% isoflurane, placed on a custom-made bed of a nanoScan small animal PET/CT scanner (Mediso Medical Imaging Systems) and scanned for 20 min on a static acquisition protocol, followed by a CT scan. […] Voxel-based repeated measures with Student’s t test comparing baseline to drug were performed, and the resulting parametric images were filtered for statistically significant (p < 0.05) clusters larger than 100 contiguous voxels. All statistical parametric mapping analyses were performed using Matlab R2016 (Mathworks) and SPM12 (University College London).

endogenous binding sites = assay type: in vivo; conditions: monkey
Protocol: All macaque studies were acquired dynamically on the Focus 220 PET scanner (Siemens Medical Solutions, Knoxville, TN). The Focus 220 is a dedicated pre-clinical scanner with a transaxial FOV of 19 cm and an axial FOV of 7.5 cm. Image resolution is <2 mm within the central 5 cm FOV.
After initial evaluation the monkey was sedated with ketamine (10 mg kg^−1) followed by ketoprofen (as an analgesic) and glycopyrrolate (for salvia reduction), all weight dependent IM injections. The monkey would then be placed in the supine position, intubated with a tracheal tube. Anesthesia was maintained by 1–3.5% isoflurane and oxygen, the monkey’s head was positioned and immobilized for optimal positioning of the brain and moved into the scanner. A 10-min transmission scan using a Co-57-point source for attenuation correction was performed. One iv was inserted, if possible, in the right arm and one in the right leg for injection of tracer and blocking agent. The monkey was always monitored while anesthetized. HR, BP, O2 saturation, RR, three lead ECG, rectal temperature was documented every 15 min.
Arterial blood sampling was acquired throughout the study using an indwelling femoral port. The first 2 min samples were collected every 15 s then at 3, 5, 10, 30, 60, 90, and 120 min post tracer injection. All scans were acquired for 120 min using list mode acquisition. […]
To determine the arterial input function for the radiotracers injected in rhesus monkeys radioligand concentrations in the arterial plasma were corrected by the unchanged parent fraction. […] The unchanged plasma parent fractions were determined by radio-HPLC on an X-terra® C18 column (10 µm, 7.8 mm × 300 mm, Waters Corp., Milford, MA), and eluted with MeOH:H2O:Et3N (80:20:0.1; by volume) at an isocratic flow rate of 4.0 mL min^−1. Eluates were monitored with an in-line flow-through NaI(Tl) scintillation detector (Bioscan). Data were stored and analyzed on a PC using the software “Bio-ChromeLite”. […] Plasma free fraction was determined according to our previous methods.

hM3Dq = hM3Dq (Homo sapiens, UniProt P20309, A239G/Y149C); assay: Autoradiography: displacement of [3H]clozapine from hM3Dq in mouse brain sections; assay type: binding; set-up: 026220; host or cells: mouse brain, dopamine D1 receptor-expressing neurons (transgene); conditions: hM3Dq and hM4Di; up to 10 nM
Source text: (§1) Flash frozen tissue (both rodents and the monkey) was sectioned (20 µm) on a cryostat (Leica, Germany) and thaw mounted onto ethanol-washed glass slides. […] Slides were air dried and placed in a Hypercassette™ (Amersham Biosciences) and covered with a BAS-TR2025 Storage Phosphor Screen (FujiFilm, Japan). The slides were exposed to the screen for 5–7 days and imaged using a phosphor imager (Typhoon FLA 7000; GE Healthcare).

5-HT receptors = assay: Binding and enzyme target profile screen (Eurofins); conditions: competitive binding screen
Protocol: These experiments were performed by an outside vendor (Eurofins, France). […] In each experiment, the respective reference compound was tested concurrently with the test compound to assess the assay reliability. […] Following incubation, the samples were filtered rapidly under vacuum through glass fiber filters presoaked in a buffer and rinsed several times with an ice-cold buffer using a 48-sample or 96-sample cell harvester. The filters were counted for radioactivity in a scintillation counter using a scintillation cocktail.

[1] = test system: endogenous clozapine-binding sites; assay: Autoradiography: displacement of [3H]clozapine in WT / non-DREADD mouse brain tissue; conditions: individual values
Source text: as §1

hM3Dq, sequence (P20309 whole entry Y149C/A239G): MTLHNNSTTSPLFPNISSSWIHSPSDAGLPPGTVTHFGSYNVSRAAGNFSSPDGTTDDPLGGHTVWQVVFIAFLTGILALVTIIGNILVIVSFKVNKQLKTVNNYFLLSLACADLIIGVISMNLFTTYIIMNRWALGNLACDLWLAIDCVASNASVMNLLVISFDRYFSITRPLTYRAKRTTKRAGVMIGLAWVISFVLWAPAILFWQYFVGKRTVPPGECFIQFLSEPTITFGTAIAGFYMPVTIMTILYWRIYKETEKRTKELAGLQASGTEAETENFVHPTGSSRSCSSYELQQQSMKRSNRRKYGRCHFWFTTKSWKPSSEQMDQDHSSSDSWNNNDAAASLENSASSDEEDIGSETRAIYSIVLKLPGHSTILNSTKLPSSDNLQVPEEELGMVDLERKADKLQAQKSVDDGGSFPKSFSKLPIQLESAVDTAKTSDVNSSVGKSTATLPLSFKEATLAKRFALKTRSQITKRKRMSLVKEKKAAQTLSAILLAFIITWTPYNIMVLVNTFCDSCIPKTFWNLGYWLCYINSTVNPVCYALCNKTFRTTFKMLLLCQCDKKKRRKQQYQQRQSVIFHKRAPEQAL

Compound | brain metabolic activity ([18F]FDG) (WT mice; 1 mg/kg IP, 1 mg/kg) | brain metabolic activity ([18F]FDG) (WT mice; 1 mg/kg IP, listed as Compound 21, 1 mg/kg) | off-target effects (endogenous binding sites; 10 mg/kg) | in situ [3H]clozapine displacement in brain tissue from WT and D1-DREADD mice (hM3Dq) | affinity at 5-HT receptors relative to clozapine (5-HT receptors) | [3H]CLZ binding in mouse brain sections, WT ([1]; competitor concentration 0.001, listed as J52) | [3H]CLZ binding in mouse brain sections, WT ([1]; competitor concentration 0.01, listed as J52) | [3H]CLZ binding in mouse brain sections, WT ([1]; competitor concentration 1, listed as J52) | brain metabolic activity ([18F]FDG) (WT mice; 0.1 mg/kg) | brain metabolic activity ([18F]FDG) (WT mice; 0.1 mg/kg, listed as J60, 0.1 mg/kg) | [3H]CLZ binding in mouse brain sections, WT ([1]; competitor concentration 0.001, listed as J60) | [3H]CLZ binding in mouse brain sections, WT ([1]; competitor concentration 0.01, listed as J60) | [3H]CLZ binding in mouse brain sections, WT ([1]; competitor concentration 1, listed as J60) | [11C]clozapine binding after drug, L_Amygdala (endogenous binding sites; 0.1 mg kg-1) | [11C]clozapine binding after drug, PFC (endogenous binding sites; 0.1 mg kg-1)
c1ccc2c(c1)N=C(N1CCNCC1)c1ccccc1N2 [C21] | significant changes in brain metabolic activity | decreased metabolic activity of multiple networks | extensive displacement of [^11C]clozapine binding at endogenous binding sites and non-specific effects |  |  |  |  |  |  |  |  |  |  |  | 
CCN1CCN(C2=Nc3cc(Cl)ccc3Nc3cccc(F)c32)CC1 [JHU37152, 8-Chloro-11-(4-ethylpiperazin-1-yl)-1-fluoro-5H-dibenzo[b,e][1,4]diazepine] |  |  |  | selective [^3H]clozapine displacement from DREADDs and not from other clozapine-binding sites | lower affinity than clozapine | 119.578 and 91.3526 and 103.192 and 105.979 and 100.87 and 101.941 | 85.3632 and 98.6721 and 100.487 and 96.5233 and 115.016 and 88.1843 | 68.3087 and 51.6943 and 71.7816 and 75.1729 and 78.8993 and 70.8806 |  |  |  |  |  |  | 
CCN1CCN(C2=Nc3cc(Cl)ccc3Nc3c(F)cccc32)CC1 [JHU37160, 8-Chloro-11-(4-ethylpiperazin-1-yl)-4-fluoro-5H-dibenzo[b,e][1,4]diazepine] |  |  |  | selective [^3H]clozapine displacement from DREADDs and not from other clozapine-binding sites | lower affinity than clozapine |  |  |  | no significant brain metabolic changes | did not show any significant changes in brain metabolic activity | 106.379 and 101.292 and 102.926 and 122.941 and 108.508 and 97.311 | 120.43 and 105.789 and 111.318 and 118.633 and 118.689 and 124.215 | 55.5737 and 82.7293 and 46.5386 and 44.7797 and 54.5308 and 62.9299 | 0.2865 | 0.3429

From article PMC6788984, “High-potency ligands for DREADD imaging and activation in rodents and monkeys” (Nature Communications, 2019)
